Laboratory results as given in publication PMC10281575, “PfCRT mutations conferring piperaquine resistance in falciparum malaria shape the kinetics of quinoline drug binding and transport” (PLOS Pathogens, 2023).
Several values for one entry are separate records, joined by “and”; a condition that tells them apart may be missing. Identical values can stand only once.

Biological target: T1, PfCRT^Dd2_M343L (Plasmodium falciparum, UniProt Q8IBZ9, A220S/I356T/K76T/M343L/M74I/N326S/N75E/Q271E/R371I)
T1 construct: expressed in transfected cells; host or cells: Xenopus laevis oocytes injected with in vitro transcribed RNA (pSP64T)
T1 sequence (Q8IBZ9 1-424 M74I/N75E/K76T/A220S/Q271E/N326S/M343L/I356T/R371I): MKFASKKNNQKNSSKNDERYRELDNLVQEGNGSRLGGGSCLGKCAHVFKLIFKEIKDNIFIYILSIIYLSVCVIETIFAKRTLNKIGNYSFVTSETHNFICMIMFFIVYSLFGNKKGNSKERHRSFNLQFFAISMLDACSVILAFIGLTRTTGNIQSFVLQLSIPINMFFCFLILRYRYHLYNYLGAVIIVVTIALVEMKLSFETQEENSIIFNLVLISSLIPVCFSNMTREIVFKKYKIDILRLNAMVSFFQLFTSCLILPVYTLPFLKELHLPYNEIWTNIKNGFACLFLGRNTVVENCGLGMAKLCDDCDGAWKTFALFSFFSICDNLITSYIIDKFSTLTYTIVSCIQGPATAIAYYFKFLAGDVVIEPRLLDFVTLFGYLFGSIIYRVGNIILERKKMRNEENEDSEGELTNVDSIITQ
Test: Radiolabeled drug uptake in X. laevis oocytes expressing PfCRT^Dd2_M343L
Type: cell-based
Excerpt: A codon-optimized coding sequence of the Dd2 isoform of PfCRT (PfCRT^Dd2) was subcloned into the pSP64T expression vector [21]. To generate the necessary mutations to introduce the amino acid substitutions H97Y, F145I, M343L or G353V into the pfcrt sequence, the overlap extension method was used. A region from the 5’-untranslated Xenopus β-globin sequence to the respective 3’ region, containing the full length pfcrt coding sequence, was amplified using the following primer pairs: for the H97Y mutation, numbers 1/4 and 2/3; for the F145I mutation, numbers 1/6 and 2/5; for the M343L mutation, numbers 1/8 and 2/7; and for the G353V mutation, numbers 1/10 and 2/9 (for primers, see S2 Table). Both PCR products were used as template for amplification of the final product using primers number 1/2. The resulting fragment was cloned into the pSP64T expression vector, and the presence of the desired mutation was confirmed by sequencing.
Adult female X. laevis frogs (purchased from NASCO) were anesthetized by submersion in a solution of 0.3% (w/v) 3-amino benzoate methanesulfonate for 15 min. Sections of the ovary were surgically removed and placed in Ca^2+-free ND96 buffer supplemented with 0.1% collagenase D (w/v; Roche), 0.5% BSA (w/v) and 9 mM Na2HPO4 at 18°C for 14–16 h while gently shaking. The oocytes were then washed several times with ND96 buffer (5 mM HEPES, pH 7.5, 96 mM NaCl, 2 mM KCl, 1.8 mM CaCl2, 1 mM MgCl2), supplemented with […] gentamycin. Healthy-looking stage V-VI oocytes were manually selected and randomly grouped for injection. A codon-optimized coding sequence of PfCRT was subcloned into the pSP64T expression vector and subsequently linearized using the restriction endonuclease BamHI or SalI (New England Biolabs GmbH). RNA for injection was transcribed in vitro using the mMESSAGE mMACHINE SP6 Transcription kit (Ambion), diluted with nuclease-free water to a final concentration of 0.6 μg/μL and stored at -80°C. RNA was injected using precision-bore glass capillary tubes (3.5-inch glass capillaries; Drummond Scientific Co.), which were pulled on a vertical puller (P-87 Flaming/Brown micropipette puller, Sutter Instrument Co.) and graduated. The micropipettes were connected to a microinjector (Nanoject II Auto-Nanoliter Injector, Drummond Scientific Co.). Injection was conducted under stereomicroscopic control. 50 nL of nuclease-free water alone (control oocytes) or 50 nL of nuclease-free water containing 30 ng of RNA was injected per oocyte. Injected oocytes were kept for 72 h at 18°C in ND96 buffer with two daily buffer changes before being used for further experiments.
Drug transport assays were performed as previously described. Briefly, measurements of radiolabeled drug uptake were made over 1 h, unless otherwise specified. […] Where specified, one or more unlabeled drugs were also present at the indicated concentrations. […] The uptake assays were terminated by removing the oocytes from the reaction medium and washing them three times with 2 mL of ice-cold ND96 buffer. Each oocyte was transferred to a separate scintillation vial and lysed by the addition of 200 μL of a 5% SDS solution. The radioactivity in the sample was measured using a liquid scintillation analyser Tri-Carb 4910 TR (PerkinElmer). Water-injected oocytes were analyzed in parallel as a negative control. The buffer from each condition was measured in duplicate in parallel to each experiment to transform counts per minute into pmol of drug. Drug uptake attributable to PfCRT was determined by subtracting the background uptake from water-injected oocytes from that of PfCRT-expressing oocytes. In all cases, at least three independent experiments were performed on oocytes from different frogs, and for each condition in an experiment, measurements were made from 10 oocytes per treatment.

SMILES	PfCRTDd2_M343L-mediated CQ uptake at 10 µM CQ (10 µM CQ, single replicates)	PfCRTDd2_M343L-mediated CQ uptake at 50 µM CQ (50 µM CQ, single replicates)	PfCRTDd2_M343L-mediated CQ uptake at 100 µM CQ (100 µM CQ, single replicates)	PfCRTDd2_M343L-mediated CQ uptake at 300 µM CQ (300 µM CQ, single replicates)	PfCRTDd2_M343L-mediated CQ uptake at 500 µM CQ (500 µM CQ, single replicates)	Vmax, maximal velocity of drug transport (Michaelis-Menten fit, 10-500 μM drug, pH 6) [pmol oocyte^-1 h^-1]	PfCRTDd2_M343L-mediated PPQ uptake at 10 µM PPQ (10 µM PPQ, single replicates)	PfCRTDd2_M343L-mediated PPQ uptake at 50 µM PPQ (50 µM PPQ, single replicates)	PfCRTDd2_M343L-mediated PPQ uptake at 100 µM PPQ (100 µM PPQ, single replicates)	PfCRTDd2_M343L-mediated PPQ uptake at 300 µM PPQ (300 µM PPQ, single replicates)	PfCRTDd2_M343L-mediated PPQ uptake at 500 µM PPQ (500 µM PPQ, single replicates)	Km (Michaelis-Menten fit, 10-500 μM drug, pH 6, read-out: KM, Michaelis constant) [µM]
CCN(CC)CCCC(C)Nc1ccnc2cc(Cl)ccc12 (stereo not drawn) [CQ, chloroquine]	1.16 pmol oocyte-1 h-1 and 0.62 pmol oocyte-1 h-1 and 0.22 pmol oocyte-1 h-1	2.13 pmol oocyte-1 h-1 and 3.20 pmol oocyte-1 h-1 and 2.38 pmol oocyte-1 h-1 and 2.37 pmol oocyte-1 h-1	5.08 pmol oocyte-1 h-1 and 4.43 pmol oocyte-1 h-1 and 5.13 pmol oocyte-1 h-1	10.45 pmol oocyte-1 h-1 and 11.10 pmol oocyte-1 h-1 and 13.47 pmol oocyte-1 h-1	14.93 pmol oocyte-1 h-1 and 14.77 pmol oocyte-1 h-1 and 15.77 pmol oocyte-1 h-1	31 ± 2	–	–	–	–	–	–
Clc1ccc2c(N3CCN(CCCN4CCN(c5ccnc6cc(Cl)ccc56)CC4)CC3)ccnc2c1 [PPQ, piperaquine]	–	–	–	–	–	–	13.08 pmol oocyte-1 h-1 and 6.84 pmol oocyte-1 h-1 and 2.69 pmol oocyte-1 h-1	84.22 pmol oocyte-1 h-1 and 103.15 pmol oocyte-1 h-1 and 60.92 pmol oocyte-1 h-1 and 65.48 pmol oocyte-1 h-1 and 62.52 pmol oocyte-1 h-1 and 18.03 pmol oocyte-1 h-1	130.36 pmol oocyte-1 h-1 and 98.93 pmol oocyte-1 h-1 and 50.24 pmol oocyte-1 h-1	154.89 pmol oocyte-1 h-1 and 102.01 pmol oocyte-1 h-1 and 116.02 pmol oocyte-1 h-1	164.14 pmol oocyte-1 h-1 and 130.73 pmol oocyte-1 h-1 and 130.95 pmol oocyte-1 h-1	80 ± 16
